According to patent US12637720B2, “Molecular subtyping of small cell lung cancer to predict therapeutic responses” (Board of Regents, The University of Texas System, priority 2019, dated 2026):

Columns and labels:
SCLC cell lines = assay: Cisplatin CellTiter-Glo cell viability, IC50 compared between SCLC subtypes; assay type: cell-based
Method: Drug response data. With the exception of cisplatin (Allison Stewart et al., 2017; Gay et al., 2019), drug response data included publicly available data sets (Polley et al., 2016). For cisplatin, cell lines were plated at 2,000 cells per well in 96-well plates 24 hours prior to treatment with drug using standard cell culture conditions. Each line was treated, in triplicate, with cisplatin at starting concentration of 10 μmon followed by 1:3 serial dilutions and DMSO-only control. Following 120-hour incubations, cell viability was assessed using CellTiter-Glo Luminescent Cell Viability Assay (Promega). IC50 values were estimated using software program drexplorer with fitting of multiple dose-response models and selection of best model using the residual standard error.
While there are biological differences between each subtype, it not known to what extent these differences yield distinct responses to anti-cancer therapies. To investigate subtype-specific vulnerabilities, SCLC cell line in vitro drug response data for over 500 drugs were used (Gay, 2019; Polley et al., 2016). […] For each subtype, a drug or drug class that worked especially well was identified, often accompanied by differential expression of the drug target or putative predictive biomarker.

[1] = system: MDA-SC53 and MDA-SC68 CDX models; assay: Cisplatin treatment of CTC-derived xenograft (CDX) models; assay type: in vivo, mice
Text: Circulating-tumor cell derived xenograft model generation. Patients diagnosed with SCLC at the University of Texas MD Anderson Cancer Center were selected on the basis of extensive-stage disease irrespective of age, gender or other clinical criteria. These patients underwent informed consent to Institutional Review Board (IRB)-approved protocol LAB10-0442 (“Evaluation of blood-based test for the detection of circulating tumor cells and circulating proteins and microRNAs and molecular analysis for polymorphisms and mutations”) and blood was collected. Technical details are as previously described (Stewart et al., 2020b). One vial of blood was collected for isolation and banking of plasma and peripheral blood mononuclear cells for use as a normal control. […] Mice were monitored for formation of a flank tumor and were euthanized when tumor burden reached 1000-1500 mm^3. […]
Single-cell RNAseq. […] Cells were then stained for anti-human HLA A647 (Biolegend 311414), Calcein AM (C3100MP) and DAPI (Lifetech D1306, 1 μg/mL) and sorted by Fluorescence-Activated Cell sorting (FACS) to select only live, human cells for downstream single cell transcriptomic analyses. Sorted cells were washed once with 0.04% BSA in PBS and counted on Countess II automated cell counter (ThermoFisher). […]

platinum-resistant SCLC = settings: patients with platinum-resistant SCLC; cited from earlier work
relapsed SCLC = settings: single-agent, relapsed SCLC patients, KEYNOTE-158; cited from earlier work
DLL3 = target: T1, DLL3 (Homo sapiens, UniProt Q9NYJ7); settings: cited from earlier work
T1 construct: host or cells: SCLC tumours of patients in the clinical trial (endogenous DLL3)
T1 sequence (Q9NYJ7 27-618): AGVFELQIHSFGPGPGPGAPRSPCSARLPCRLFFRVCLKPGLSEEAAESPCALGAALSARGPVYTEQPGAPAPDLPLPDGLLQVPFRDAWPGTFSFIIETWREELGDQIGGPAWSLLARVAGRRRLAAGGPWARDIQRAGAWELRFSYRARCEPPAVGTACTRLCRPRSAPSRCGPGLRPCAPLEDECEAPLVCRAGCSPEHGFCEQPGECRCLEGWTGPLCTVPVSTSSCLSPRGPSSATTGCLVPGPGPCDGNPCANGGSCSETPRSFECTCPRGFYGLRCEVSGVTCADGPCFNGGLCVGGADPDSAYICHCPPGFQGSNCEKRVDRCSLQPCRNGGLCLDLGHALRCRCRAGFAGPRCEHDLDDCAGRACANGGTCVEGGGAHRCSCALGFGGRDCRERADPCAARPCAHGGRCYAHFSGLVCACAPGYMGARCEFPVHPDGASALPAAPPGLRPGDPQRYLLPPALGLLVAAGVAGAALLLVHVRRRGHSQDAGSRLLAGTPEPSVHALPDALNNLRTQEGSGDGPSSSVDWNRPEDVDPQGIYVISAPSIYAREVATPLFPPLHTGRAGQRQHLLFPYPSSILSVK

For `N.N.[Cl][Pt][Cl]` [cisplatin], the “cisplatin sensitivity of SCLC-A models” value (SCLC cell lines; SCLC-A) was “range of sensitivities”, the “cisplatin sensitivity of SCLC-I models” value (SCLC cell lines; SCLC-I) was “resistant” and the “cisplatin sensitivity of SCLC-N models” value (SCLC cell lines; SCLC-N) was “resistant”. For the same molecule, the “cisplatin sensitivity of SCLC-P models” value (SCLC cell lines; SCLC-P, mean IC50 versus other subtypes, trend) was “most sensitive”, the “response of CDX model to cisplatin” value ([1]; MDA-SC68rel model, relapsed after in vivo cisplatin treatment) was “cisplatin-resistant” and the “response of CDX model to cisplatin” value ([1]; treatment-naive MDA-SC68 parental model) was “cisplatin-sensitive”.

For “nivolumab: anti-PD-1 antibody described in WO2006/121168”, the “overall survival benefit versus chemotherapy” value (platinum-resistant SCLC) is listed as “preferential OS benefit”.

For “pembrolizumab: anti-PD-1 antibody described in WO2009/114335”, the response rate (relapsed SCLC) is listed as 19%.

B1: rovalpituzumab tesirine: ADC targeting the inhibitory Notch ligand Delta-like ligand 3 (DLL3) (conjugate, chains of the INN, looked up)
VH: QVQLVQSGAEVKKPGASVKVSCKASGYTFTNYGMNWVRQAPGQGLEWMGWINTYTGEPTYADDFKGRVTMTTDTSTSTAYMELRSLRSDDTAVYYCARIGDSSPSDYWGQGTLVTVSS
VL: EIVMTQSPATLSVSPGERATLSCKASQSVSNDVVWYQQKPGQAPRLLIYYASNRYTGIPARFSGSGSGTEFTLTISSLQSEDFAVYYCQQDYTSPWTFGQGTKLEIK
modifications: tesirine
In the case of B1, the clinical activity (DLL3; Phase II clinical trial for SCLC) is given as “only modest activity” and the toxicity (DLL3; Phase II clinical trial, of the conjugated cytotoxic molecule) is given as “unexpected toxicity”.
